This is an account of results in ChEMBL document CHEMBL4152332, “Discovery and synthesis of novel magnolol derivatives with potent anticancer activity in non-small cell lung cancer” (Eur J Med Chem, 2018).

This series has as its system Mus musculus. Nature of the series: Toxicity in Balb/c mouse xenografted with human NCI-H1975 cells assessed as change in body weight at 10 mg/kg, po qd treated for 18 days and measured every 2 days after compound dosing ( Rvb = 2.89%). Format: organism-based. The note with it: in vivo. On the technique in general: Xenograft models place foreign cells or tissue in a host animal.

`C=CCc1ccc(O)c(-c2cc(CC=C)cc(CN3CCC(N)CC3)c2O)c1`: the Activity amounted to 13.3%.
